We go through 1 compound from patent US9730945B2, “Diagnosis of autism spectrum disorders and its treatment with an antagonist or inhibitor of the 5-HT2c receptor signaling pathway” (Massachusetts Institute of Technology, priority 2009, dated 2017).

For the assay, the system named is Pten haploinsufficient mice. The assay can be described thus: Social approach behavior assay (three-chamber apparatus). Type of assay: in vivo. Conditions: female Pten haploinsufficient mice, 8 weeks of age, IP 0.3 mg/kg, 20 minutes prior to assay, quantified over 10 minutes, preliminary test. How it is done:
FIG. 5: Effects of the 5-HT2cR antagonist SB 242084 on social approach behavior in Pten haploinsufficient mice. The mice tested were female littermates, 8 weeks of age. The mice were given an IP injection of 0.3 mg/kg of SB 242084 or vehicle, 20 minutes prior to start of the assay. A social stimulus mouse was placed in chamber 1 and an identical empty cage was placed in chamber 3. The percent time the subject mouse spent interacting with the stimulus mouse was quantified over 10 minutes. […] For vehicle treated groups, n=6; for SB 242084-treated groups, n=8. * P<0.05, ANOVA within group comparison between chamber 1 and chamber 3. In each group of bars, the order is: left bar=chamber 1, middle bar=chamber 2, right bar=chamber 3.
A mouse was placed in an open top acrylic box (24″L×12″W×12″H) with opaque walls. The box was divided into three (8″L×12″W) chambers separated by opaque acrylic panels with holes providing passage between chambers. For reference, the chambers were numbered, from left to right 1, 2, and 3. […] The resulting video was scored with computer assistance by importing into ImageJ software (http://rsb.info.nih.gov/ij/), where each chamber was defined as a region of interest using a script written in-house, and the number of frames in which the mouse was in each region of interest was quantified. […]

Each structure is given as a SMILES string. “Also recorded” adds a separate entry of the source.

Consider `Cc1cc2c(cc1Cl)N(C(=O)Nc1ccc(Oc3cccnc3C)nc1)CC2` [SB 242084, 6-Chloro-5-methyl-1-[[2-(2-methylpyrid-3-yloxy)pyrid-5-yl]carbamoyl]indoline], for which the “social approach behavior (percent time interacting with stimulus mouse, chamber 1 vs chamber 3)” value is “can offset deficits in social approach behavior; also recorded: significant preference for interacting with the stimulus mouse”.
